What all share (test): inhibition of tumour cell growth, NCI panel, 48 h
For assay [1], the system named is CCRF-CEM leukemia.
Assay [2] concerns M14 melanoma.
For assay [3], the system named is MCF7 breast.
For assay [4], the system named is COLO 205 colon.
Assay [5] concerns NCI-H460 lung.
Assay [6] concerns NCI-H522 lung.
The test system of assay [7] is UACC-257 melanoma.
The subject of assay [8] is KM12 colon.
In assay [9] the test system is T-47D breast.
Assay [10] relates to HOP-92 NSCLC.

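Where inhibition never reached the appropriate level, the endpoint shown equals the highest concentration tested. Otherwise, values were interpolated linearly from a five-concentration, 48-hour dose response in 96-well plates. The concentration for 50% growth inhibition is given as GI50. Definition used: TGI = concentration required for complete inhibition of growth.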

Turning to `COc1ccc(C(=O)/C=C/c2ccc3c(c2)OCO3)c(OCc2ccccc2)c1`, the TGI in assay [1] is over 26900 nM; in assay [2], over 100000 nM; in assay [3], over 100000 nM; in [4] it was over 100000 nM; in assay [5], over 100000 nM; in assay [6], over 100000 nM. Also, the TGI in assay [7], in [8], in assay [9] and in assay [10] was over 100000 nM throughout.
For the compound `COc1cc(/C=C/C(=O)c2c(C)nc3ccccc3c2/C=C/c2ccc(C)cc2)cc(OC)c1OC`, the GI50 is 2830 nM in assay [1]; 2180 nM in assay [2]; 1390 nM in assay [3]; 2530 nM in assay [4]; 2060 nM in assay [5]; 1830 nM in assay [6]. The GI50 in assay [7] is 2710 nM; in [8], 1870 nM; in [9] it was 2490 nM; in assay [10], 1610 nM. Besides, the TGI in assay [1] is over 100000 nM; in assay [2], 5030 nM; in [3] it was 3510 nM; in [4], 6090 nM; in assay [5], 5090 nM; in assay [6], 5560 nM. The TGI was 7320 nM in [7], 3600 nM in [8], over 100000 nM in assay [9] and 3900 nM in assay [10].
Take `CN(C)CCCN1c2ccccc2C(C)(C)c2ccccc21`: the TGI in assay [1] was found to be 53500 nM; in [2] it was 28800 nM; in assay [3], 28000 nM; in assay [4], 27800 nM; in assay [5], 26400 nM; in [6], 28600 nM. In addition, the TGI in assay [7] came out at 23900 nM; in [8] it was 28300 nM; in assay [9], 38700 nM; in assay [10] it was 31600 nM.
With `COc1cc2c(cc1OCCCCCOc1ccc(-n3c(C)nc4ccccc4c3=O)cc1)N=C[C@@H]1CCCN1C2=O`, the GI50 is 210 nM in assay [1]; 180 nM in assay [2]; 271 nM in assay [3]; 165 nM in [4]; 248 nM in [5]; 204 nM in assay [6]. For the same compound, the GI50 is 434 nM in [7], 173 nM in assay [8], 324 nM in [9] and 394 nM in [10]. Besides, the TGI in assay [1] was found to be 588 nM; in assay [2], 375 nM; in assay [3], 1300 nM; in assay [4], 370 nM; in assay [5], 691 nM; in assay [6] it was 958 nM. In addition, the TGI in assay [7] was 1480 nM; in [8], 362 nM; in assay [10], 7380 nM.
Consider `CNCCNc1c2c(c(NCCNC)c3[nH]ccc13)C(=O)c1ccccc1C2=O`, for which the GI50 in assay [1] was 14.8 nM; in [2] it was 270 nM; in [3] it was 154 nM; in [4], 3320 nM; in [5] it was 99.1 nM; in assay [6], 117 nM. Further, the GI50 in assay [7] is 1720 nM; in [8], 89.2 nM; in assay [9], 11400 nM; in assay [10] it was 418 nM. Moreover, the TGI in assay [1] turned out to be 203 nM; in assay [2], 1350 nM; in [3] it was 1190 nM; in [5], 501 nM; in [6] it was 339 nM; in assay [7], 7040 nM. Further, the TGI was 374 nM in assay [8], over 27000 nM in assay [9] and 2370 nM in assay [10].

These data come from PubChem BioAssay (NCI).
